Non-standard residues stand in square brackets, D forms with d. Residues, ends and D or L forms follow the SMILES beside them. Sar = CNCC(=O)O
biological target: T1, furin (Homo sapiens, UniProt P09958); experiment: biochemical; details: not given
T1 construct: made in house; host or cells: Drosophila S2 cells (Invitrogen expression system)
T1 sequence (P09958 108-794 limits assumed): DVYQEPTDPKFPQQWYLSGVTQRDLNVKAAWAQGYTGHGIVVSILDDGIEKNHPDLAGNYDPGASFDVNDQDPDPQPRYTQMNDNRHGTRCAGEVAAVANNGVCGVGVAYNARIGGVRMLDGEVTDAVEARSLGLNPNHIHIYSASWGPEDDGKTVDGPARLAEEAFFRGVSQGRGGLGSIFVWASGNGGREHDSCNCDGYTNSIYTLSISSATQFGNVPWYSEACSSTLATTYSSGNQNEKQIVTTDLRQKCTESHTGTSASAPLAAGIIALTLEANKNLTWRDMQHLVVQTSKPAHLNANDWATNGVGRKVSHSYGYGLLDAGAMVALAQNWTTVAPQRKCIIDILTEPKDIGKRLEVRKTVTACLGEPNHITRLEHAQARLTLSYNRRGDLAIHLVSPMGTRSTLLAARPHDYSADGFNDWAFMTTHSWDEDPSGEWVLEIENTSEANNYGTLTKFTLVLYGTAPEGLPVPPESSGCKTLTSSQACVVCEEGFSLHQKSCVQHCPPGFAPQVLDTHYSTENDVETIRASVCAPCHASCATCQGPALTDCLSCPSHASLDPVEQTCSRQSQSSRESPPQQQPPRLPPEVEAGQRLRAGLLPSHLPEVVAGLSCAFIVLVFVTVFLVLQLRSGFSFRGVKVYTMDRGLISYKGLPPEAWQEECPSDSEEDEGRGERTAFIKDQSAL

Structure (SMILES) | Ki
C[C@@H](O)[C@H](N)C(=O)N1CCC[C@H]1C(=O)N[C@@H](CCC(N)=O)C(=O)N[C@@H](CCCNC(=N)N)C(=O)N[C@@H](CCCNC(N)=O)C(=O)N[C@@H](CCCNC(=N)N)C(=O)N[C@@H](CCCNC(=N)N)C(=O)N[C@@H](CCCNC(=N)N)C(=O)N[C@@H](CCCCN)C(=O)N[C@@H](CCCCN)C(=O)N[C@@H](CCCNC(=N)N)C(=O)NCC(N)=O [TPQR4RRRKKRG] | > 100 nM

same assay, conditions: furin, Pyr-RTKR-AMC substrate; alanine scanning mutagenesis of the H5 furin cleavage sequence (Table 2); read-out: Ki

Structure (SMILES) | Ki
C[C@H](NC(=O)[C@H](CCCCN)NC(=O)[C@H](CCCNC(=N)N)NC(=O)[C@H](CCCNC(=N)N)NC(=O)[C@H](CCCNC(=N)N)NC(=O)[C@H](CCC(=O)O)NC(=O)[C@H](CCCNC(=N)N)NC(=O)[C@@H]1CCCN1C(=O)[C@@H](N)[C@@H](C)O)C(=O)N[C@@H](CCCNC(=N)N)C(N)=O (H-TPRERRRKAR-NH2) | > 100 nM
CC(C)[C@H](NC(=O)[C@H](CCCNC(=N)N)NC(=O)[C@H](CCCCN)NC(=O)[C@H](CCCCN)NC(=O)[C@H](CCCNC(=N)N)NC(=O)[C@H](CCCNC(=N)N)NC(=O)[C@H](CCCNC(=N)N)NC(=O)[C@H](CCC(=O)O)NC(=O)[C@H](C)NC(=O)[C@H](C)NC(=O)[C@@H](N)[C@@H](C)O)C(N)=O (H-TAAERRRKKRV-NH2) | > 100 nM
C[C@H](NC(=O)[C@H](C)NC(=O)[C@H](CCCCN)NC(=O)[C@H](CCCNC(=N)N)NC(=O)[C@H](CCCNC(=N)N)NC(=O)[C@H](CCCNC(=N)N)NC(=O)[C@H](CCC(=O)O)NC(=O)[C@H](CCCNC(=N)N)NC(=O)[C@@H]1CCCN1C(=O)[C@@H](N)[C@@H](C)O)C(N)=O (H-TPRERRRKAA-NH2) | > 100 nM
C[C@H](NC(=O)[C@H](C)NC(=O)[C@H](CCCNC(=N)N)NC(=O)[C@H](CCCNC(=N)N)NC(=O)[C@H](CCC(=O)O)NC(=O)[C@H](CCCNC(=N)N)NC(=O)[C@@H]1CCCN1C(=O)[C@@H](N)[C@@H](C)O)C(=O)N[C@@H](CCCCN)C(=O)N[C@@H](CCCNC(=N)N)C(N)=O (H-TPRERRAAKR-NH2) | > 100 nM
C[C@H](NC(=O)[C@H](C)NC(=O)[C@H](CCCNC(=N)N)NC(=O)[C@@H]1CCCN1C(=O)[C@@H](N)[C@@H](C)O)C(=O)N[C@@H](CCCNC(=N)N)C(=O)N[C@@H](CCCNC(=N)N)C(=O)N[C@@H](CCCCN)C(=O)N[C@@H](CCCCN)C(=O)N[C@@H](CCCNC(=N)N)C(=O)NCC(N)=O (H-TPRAARRKKRG-NH2) | > 100 nM
C[C@H](NC(=O)[C@H](C)NC(=O)[C@@H](N)[C@@H](C)O)C(=O)N[C@@H](CCC(=O)O)C(=O)N[C@@H](CCCNC(=N)N)C(=O)N[C@@H](CCCNC(=N)N)C(=O)N[C@@H](CCCNC(=N)N)C(=O)N[C@@H](CCCCN)C(=O)N[C@@H](CCCCN)C(=O)N[C@@H](CCCNC(=N)N)C(N)=O (H-TAAERRRKKR-NH2) | > 100 nM
C[C@H](NC(=O)[C@H](C)NC(=O)[C@@H]1CCCN1C(=O)[C@@H](N)[C@@H](C)O)C(=O)N[C@@H](CCCNC(=N)N)C(=O)N[C@@H](CCCNC(=N)N)C(=O)N[C@@H](CCCNC(=N)N)C(=O)N[C@@H](CCCCN)C(=O)N[C@@H](CCCCN)C(=O)N[C@@H](CCCNC(=N)N)C(=O)N(C)CC(N)=O (H-TPAARRRKKR[Sar]-NH2) | > 100 nM
CC(C)[C@H](NC(=O)[C@H](CCCNC(=N)N)NC(=O)[C@H](CCCCN)NC(=O)[C@H](CCCCN)NC(=O)[C@H](CCCNC(=N)N)NC(=O)[C@H](CCCNC(=N)N)NC(=O)[C@H](CCCNC(=N)N)NC(=O)[C@H](CCC(=O)O)NC(=O)[C@H](CCCNC(=N)N)NC(=O)[C@H](C)NC(=O)[C@H](C)N)C(N)=O (H-AARERRRKKRV-NH2) | > 100 nM
C[C@H](NC(=O)[C@H](C)NC(=O)[C@H](CCCNC(=N)N)NC(=O)[C@@H]1CCCN1C(=O)[C@@H](N)[C@@H](C)O)C(=O)N[C@@H](CCCNC(=N)N)C(=O)N[C@@H](CCCNC(=N)N)C(=O)N[C@@H](CCCCN)C(=O)N[C@@H](CCCCN)C(=O)N[C@@H](CCCNC(=N)N)C(=O)N(C)CC(N)=O (H-TPRAARRKKR[Sar]-NH2) | > 100 nM
C[C@H](NC(=O)[C@@H](N)[C@@H](C)O)C(=O)N[C@@H](CCCNC(=N)N)C(=O)N[C@@H](CCC(=O)O)C(=O)N[C@@H](CCCNC(=N)N)C(=O)N[C@@H](CCCNC(=N)N)C(=O)N[C@@H](CCCNC(=N)N)C(=O)N[C@@H](CCCCN)C(=O)N[C@@H](CCCCN)C(=O)N[C@@H](CCCNC(=N)N)C(N)=O (H-TARERRRKKR-NH2) | > 100 nM
CC(C)[C@H](NC(=O)[C@H](CCCNC(=N)N)NC(=O)[C@H](CCCCN)NC(=O)[C@H](CCCCN)NC(=O)[C@H](CCCNC(=N)N)NC(=O)[C@H](CCCNC(=N)N)NC(=O)[C@H](CCCNC(=N)N)NC(=O)[C@H](C)NC(=O)[C@H](C)NC(=O)[C@@H]1CCCN1C(=O)[C@@H](N)[C@@H](C)O)C(N)=O (H-TPAARRRKKRV-NH2) | > 100 nM
CC(C)[C@H](NC(=O)[C@H](CCCNC(=N)N)NC(=O)[C@H](CCCCN)NC(=O)[C@H](CCCCN)NC(=O)[C@H](CCCNC(=N)N)NC(=O)[C@H](CCCNC(=N)N)NC(=O)[C@H](C)NC(=O)[C@H](C)NC(=O)[C@H](C)NC(=O)[C@@H]1CCCN1C(=O)[C@@H](N)[C@@H](C)O)C(N)=O (H-TPAAARRKKRV-NH2) | > 100 nM
CC(C)[C@H](NC(=O)[C@H](CCCNC(=N)N)NC(=O)[C@H](CCCCN)NC(=O)[C@H](CCCCN)NC(=O)[C@H](CCCNC(=N)N)NC(=O)[C@H](CCCNC(=N)N)NC(=O)[C@H](C)NC(=O)[C@H](C)NC(=O)[C@H](CCCNC(=N)N)NC(=O)[C@@H]1CCCN1C(=O)[C@@H](N)[C@@H](C)O)C(N)=O (H-TPRAARRKKRV-NH2) | > 100 nM
C[C@H](NC(=O)[C@H](CCCNC(=N)N)NC(=O)[C@H](CCC(=O)O)NC(=O)[C@H](CCCNC(=N)N)NC(=O)[C@@H]1CCCN1C(=O)[C@@H](N)[C@@H](C)O)C(=O)N[C@@H](CCCNC(=N)N)C(=O)N[C@@H](CCCCN)C(=O)N[C@@H](CCCCN)C(=O)N[C@@H](CCCNC(=N)N)C(=O)N(C)CC(N)=O (H-TPRERARKKR[Sar]-NH2) | > 100 nM
CC(C)[C@H](NC(=O)[C@H](C)NC(=O)[C@H](CCCCN)NC(=O)[C@H](CCCCN)NC(=O)[C@H](CCCNC(=N)N)NC(=O)[C@H](CCCNC(=N)N)NC(=O)[C@H](CCCNC(=N)N)NC(=O)[C@H](CCC(=O)O)NC(=O)[C@H](CCCNC(=N)N)NC(=O)[C@@H]1CCCN1C(=O)[C@@H](N)[C@@H](C)O)C(N)=O (H-TPRERRRKKAV-NH2) | > 100 nM

same assay, conditions: furin, Pyr-RTKR-AMC substrate; optimization of the inhibitory peptides (Table 3); read-out: Ki

Structure (SMILES) | Ki
C[C@H](NC(=O)[C@H](CCCNC(=N)N)NC(=O)[C@H](CCC(N)=O)NC(=O)[C@@H]1CCCN1C(=O)[C@@H](N)[C@@H](C)O)C(=O)N[C@@H](CCCNC(=N)N)C(=O)N[C@@H](CCCNC(=N)N)C(=O)N[C@@H](CCCNC(=N)N)C(=O)N[C@@H](CCCCN)C(=O)N[C@@H](CCCCN)C(=O)N[C@@H](CCCNC(=N)N)C(=O)N[C@@H](CCCCN)C(N)=O (H-TPQRARRRKKRK-NH2) | > 100 nM
C[C@H](NC(=O)[C@H](CCCNC(=N)N)NC(=O)[C@H](CCC(N)=O)NC(=O)[C@@H]1CCCN1C(=O)[C@@H](N)[C@@H](C)O)C(=O)N[C@@H](CCCNC(=N)N)C(=O)N[C@@H](CCCNC(=N)N)C(=O)N[C@@H](CCCNC(=N)N)C(=O)N[C@@H](CCCCN)C(=O)N[C@@H](CCCCN)C(=O)N[C@@H](CCCNC(=N)N)C(=O)NCC(N)=O | > 100 nM
CC(C)C[C@H](NC(=O)[C@H](CCCNC(=N)N)NC(=O)[C@H](CCC(N)=O)NC(=O)[C@@H]1CCCN1C(=O)[C@@H](N)[C@@H](C)O)C(=O)N[C@@H](CCCNC(=N)N)C(=O)N[C@@H](CCCNC(=N)N)C(=O)N[C@@H](CCCNC(=N)N)C(=O)N[C@@H](CCCCN)C(=O)N[C@@H](CCCCN)C(=O)N[C@@H](CCCNC(=N)N)C(=O)NCC(N)=O | > 100 nM
C[C@@H](O)[C@H](N)C(=O)N1CCC[C@H]1C(=O)N[C@@H](CCC(N)=O)C(=O)N[C@@H](CCCNC(=N)N)C(=O)N[C@@H](CC1CCCCC1)C(=O)N[C@@H](CCCNC(=N)N)C(=O)N[C@@H](CCCNC(=N)N)C(=O)N[C@@H](CCCNC(=N)N)C(=O)N[C@@H](CCCCN)C(=O)N[C@@H](CCCCN)C(=O)N[C@@H](CCCNC(=N)N)C(=O)NCC(N)=O [TPQR7RRRKKRG] | > 100 nM
C[C@H](NC(=O)[C@H](CCCNC(=N)N)NC(=O)[C@H](CCC(N)=O)NC(=O)[C@@H]1CCCN1C(=O)[C@@H](N)[C@@H](C)O)C(=O)N[C@@H](CCCNC(=N)N)C(=O)N[C@@H](CCCNC(=N)N)C(=O)N[C@@H](CCCNC(=N)N)C(=O)N[C@@H](CCCCN)C(=O)N[C@@H](CCCCN)C(=O)N[C@@H](CCCNC(=N)N)C(=O)N[C@H](C(N)=O)[C@@H](C)O (H-TPQRARRRKKRT-NH2) | 33 nM
C[C@@H](O)[C@H](N)C(=O)N1CCC[C@H]1C(=O)N[C@@H](CCC(N)=O)C(=O)N[C@@H](CCCNC(=N)N)C(=O)NCCCCCC(=O)N[C@@H](CCCNC(=N)N)C(=O)N[C@@H](CCCNC(=N)N)C(=O)N[C@@H](CCCNC(=N)N)C(=O)N[C@@H](CCCCN)C(=O)N[C@@H](CCCCN)C(=O)N[C@@H](CCCNC(=N)N)C(=O)NCC(N)=O [TPQR2RRRKKRG] | > 100 nM
C[C@@H](O)[C@H](N)C(=O)N1CCC[C@H]1C(=O)N[C@@H](CCC(N)=O)C(=O)N[C@@H](CCCNC(=N)N)C(=O)N[C@@H](CCCCN)C(=O)N[C@@H](CCCNC(=N)N)C(=O)N[C@@H](CCCNC(=N)N)C(=O)N[C@@H](CCCNC(=N)N)C(=O)N[C@@H](CCCCN)C(=O)N[C@@H](CCCCN)C(=O)N[C@@H](CCCNC(=N)N)C(=O)NCC(N)=O | > 100 nM
C[C@H](NC(=O)[C@H](CCCNC(=N)N)NC(=O)[C@H](CCC(N)=O)NC(=O)[C@@H]1CCCN1C(=O)[C@@H](N)[C@@H](C)O)C(=O)N[C@@H](CCCNC(=N)N)C(=O)N[C@@H](CCCNC(=N)N)C(=O)N[C@@H](CCCNC(=N)N)C(=O)N[C@@H](CCCCN)C(=O)N[C@@H](CCCCN)C(=O)N[C@@H](CCCNC(=N)N)C(=O)N[C@@H](Cc1c[nH]c2ccccc12)C(N)=O (H-TPQRARRRKKRW-NH2) | 34 nM
C[C@@H](O)[C@H](N)C(=O)N1CCC[C@H]1C(=O)N[C@@H](CCC(N)=O)C(=O)N[C@@H](CCCNC(=N)N)C(=O)N[C@@H](CCC(=O)O)C(=O)N[C@@H](CCCNC(=N)N)C(=O)N[C@@H](CCCNC(=N)N)C(=O)N[C@@H](CCCNC(=N)N)C(=O)N[C@@H](CCCCN)C(=O)N[C@@H](CCCCN)C(=O)N[C@@H](CCCNC(=N)N)C(=O)NCC(N)=O | > 100 nM
